According to patent US20250353873A1, “COMPOUNDS AND METHODS FOR MODULATING APOE EXPRESSION” (Ionis Pharmaceuticals, Inc., priority 2024, published 2025):
pIC50: −log10 of the molar value. Strand notation (5' to 3'): a small letter for the sugar, then the base; units joined by * are phosphorothioate-linked, units joined directly phosphodiester-linked; [ ] holds rarer units or linkages, { } end groups; capitals alone tell only the bases. [ms] = mesyl phosphoramidate linkage; e = 2'-O-(2-methoxyethyl) (MOE); [5mC] = 5-methylcytosine; d = 2'-deoxy (DNA)

What was measured:
human APOE RNA [1] = assay: Activity in APOE C57BL/6NTac-Apoeem7250 knock-in mice, single ICV bolus, 16 weeks (Example 12); type: in vivo; conditions: single ICV bolus 300 μg, 16 weeks post treatment, normalized to mouse Ppia
Outline: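 A single 300 μg intracerebroventricular dose was given, with PBS-treated mice as reference; cortical and spinal cord tissue was taken 16 weeks later. RT-qPCR quantified human APOE RNA, Ppia-normalized, expressed relative to PBS animals (% control).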

human APOE RNA [2] = assay: Dose-dependent inhibition of human APOE RNA in HepG2 cells, electroporation, 24 hours (Example 6); type: cell-based
Outline: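 IC50 derived from APOE RNA levels, given as percent of untreated control after GAPDH normalization (probe sets RTS3073 and RTS104). Oligonucleotides were delivered at multiple concentrations by electroporation into HepG2 cells seeded at 50,000 per well.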

human APOE RNA [3] = assay: Activity in APOE C57BL/6NTac-Apoeem7250 knock-in mice, single ICV bolus, 2 weeks (Example 9); type: in vivo; conditions: single ICV bolus 300 μg
Procedure: Modified oligonucleotides described above were tested in the APOE knock-in mouse model C57BL/6NTac-Apoeem7250_B-A02(APOE)Tac, a heterozygous APOE mouse model. APOE knock-in mice used in this study express the full-length human APOE gene knocked into the mouse locus. Humanization of APOE gene was done via CRISPR/Cas-9-mediated gene editing, allowing for generation of a model with constitutive expression of human APOE gene. Targeting strategy was based on NCBI transcripts NM_009696.4 (mouse) and NM_000041.4 (human). Mouse genomic sequence from exon 1 to exon 4 (including the 5′ and 3′ UTRs) was replaced with the human counterpart from 141 bp upstream of exon 1 to 28 bp downstream of exon 4. A plasmid allowing expression of Cas9 mRNA, specific gRNA, and the puromycin resistance cassette, and a plasmid containing the homology regions of the mouse APOE gene, and the replaced human region were co-transfected into the Taconic Biosciences C57BL/6N Tac ES cell line. Homologous recombination clones were isolated using positive puromycin selection, and humanized allele was obtained after Cas9-mediated gene editing. C57BL/6NTac-Apoeem7250_B-A02(APOE)Tac mice were used in the in vivo experiments described below.
APOE C57BL/6NTac-Apoeem7250 knock-in mice were divided into groups of 3 mice each. Each mouse received a single ICV bolus of 300 μg of modified oligonucleotide. A group of 3 mice received a single ICV bolus with PBS as a negative control.
(§1) Two weeks post treatment, mice were sacrificed and RNA was extracted from cortical brain tissue and spinal cord for quantitative real-time RT-PCR analysis of RNA expression of APOE using human primer probe set RTS3073 (described herein above). APOE RNA levels were normalized to mouse Ppia. Mouse Ppia was amplified using primer probe set m_cyclo24 (described herein above). Results are presented as percent human APOE RNA relative to the amount of human APOE RNA in PBS treated animals, (% control).

human APOE RNA [4] = assay: Activity in APOE C57BL/6NTac-Apoeem7250 knock-in mice, single ICV bolus, 4 weeks (Example 10); type: in vivo; conditions: single ICV bolus 300 μg
Outline: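 Human APOE RNA, quantified by real-time RT-PCR with RTS3073 and normalized to mouse Ppia, was read in cortical brain and spinal cord 4 weeks post dosing. Dosing was a single ICV bolus of 300 μg per knock-in mouse; values are % of PBS-treated animals.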

human APOE RNA [5] = assay: Activity in APOE C57BL/6NTac-Apoeem7250 knock-in mice, single ICV bolus, 8 weeks (Example 11); type: in vivo; conditions: for APOE RNA (% control) Cortex / APOE RNA (% control) Spinal Cord: single ICV bolus 300 μg, 8 weeks post treatment, normalized to mouse Ppia
Outline: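 Cortical and spinal cord human APOE RNA quantified by RT-qPCR 8 weeks after a single 300 μg ICV dose in knock-in mice, Ppia-normalized. Values are percent of levels in PBS-treated animals.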

human APOE RNA [6] = assay: Activity in APOE 1549 knock-in mice, single ICV bolus, 2 weeks (Example 7); type: in vivo; conditions: single ICV bolus of 300 μg, two weeks post treatment
Procedure: Modified oligonucleotides described above were tested in APOE knock-in mice.
APOE knock-in mice (model 41549) were obtained from Taconic Biosciences. APOE knock-in mice were divided into groups of 2 mice each. Each mouse received a single intracerebroventricular (ICV) bolus of 300 μg of modified oligonucleotide. A group of 4 mice received a single ICV bolus with PBS as a negative control.
Two weeks post treatment, mice were sacrificed and RNA was extracted from cortical brain tissue and spinal cord for quantitative real-time RT-PCR analysis of RNA expression of APOE using primer probe set RTS3073 (described herein above). APOE RNA levels were normalized to mouse Ppia. Mouse Ppia was amplified using primer probe set m_cyclo24 (forward sequence TCGCCGCTTGCTGCA, designated herein as SEQ ID NO: 16; reverse sequence ATCGGCCGTGATGTCGA, designated herein as SEQ ID NO: 17; probe sequence […], designated herein as SEQ ID NO: 18). Results are presented as percent human APOE RNA relative to the amount of human APOE RNA in PBS treated animals, (% control). Each experiment is identified in separate tables below.

human APOE RNA [7] = assay: Activity in APOE 1549 knock-in mice, single ICV bolus, 4 weeks (Example 8); type: in vivo; conditions: n = 2, single ICV bolus of 300 μg, four weeks post treatment, Table 18
Procedure: Modified oligonucleotides described above were tested in the 1549 APOE knock-in mouse model described above.
APOE knock-in mice were divided into groups of either 2 or 6 mice each as described in the tables below. Each mouse received a single intracerebroventricular (ICV) bolus of 300 μg of modified oligonucleotide. A group of either 3 or 6 mice received a single ICV bolus with PBS as a negative control.
as §1, with “Four” for “Two”, “using” for “using human”, “control). Each experiment is identified in separate tables below.” for “control).”

human APOE RNA [8] = assay: Activity in APOE C57BL/6NTac-Apoeem7250 knock-in mice, single ICV bolus, 20 weeks (Example 13); type: in vivo; conditions: single ICV bolus 300 μg, 20 weeks post treatment, normalized to mouse Ppia
Outline: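 Cortical and spinal cord RNA was assayed by real-time RT-PCR for human APOE, normalized to mouse Ppia and reported as percent of PBS controls. Tissue was taken twenty weeks after one 300 μg intracerebroventricular bolus in APOE knock-in mice, 4 per group.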

[9] = Cortex, C57BL/6NTac-Apoeem7250 knock-in mice, 4 weeks (Table 21)
[10] = Cortex, C57BL/6NTac-Apoeem7250 knock-in mice, 4 weeks (Table 22)
[11] = Spinal Cord, C57BL/6NTac-Apoeem7250 knock-in mice, 4 weeks (Table 21)
[12] = Spinal Cord, C57BL/6NTac-Apoeem7250 knock-in mice, 4 weeks (Table 22)

Procedure for BJAB cells: Human APOE modified oligonucleotides were tested for potential immunostimulatory properties in an in vitro human BJAB activation assay.
Human Burkitt lymphoma B cells, BJAB cells (DSMZ, Cat #ACC 757) were cultured in RPMI1640 medium containing 20% fetal bovine serum at 37° C. and 5% CO2. Cells were maintained at a density of 0.5-0.7×10^6 cells per milliliter. Cells were transferred to 50 mL conical Falcon tubes and centrifuged at 330 RCF for 5 minutes before being resuspended at a concentration of 7.5×10^4 cells per milliliter in RPMI culture medium containing penicillin and streptomycin. 50 μL of the cell suspension was added to a v-bottom tissue culture treated 96-well microplate. 11 μl of 10× concentrated modified oligonucleotides was then added to the plate for a final concentration of 1.6 μM and incubated for 24 hours at 37° C. and 5% CO2.
After a treatment period of 24 hours, total RNA was isolated from the cells and CCL22 RNA levels were measured by quantitative real-time RT-PCR. CCL22 RNA levels were measured by human primer-probe set RTS49260 (forward sequence [sequence], designated herein as SEQ ID NO: 19; reverse sequence [sequence], designated herein as SEQ ID NO: 20; probe sequence [sequence], designated herein as SEQ ID NO: 21). CCL22 RNA levels were normalized to total RNA content, as measured by GAPDH. Human GAPDH was measured using the human primer-probe set RTS104 (forward sequence [sequence], designated herein as SEQ ID NO: 10; reverse sequence [sequence], designated herein as SEQ ID NO: 11; probe sequence [sequence], designated herein as SEQ ID NO: 12). Levels of CCL22 RNA is presented log fold increase of CCL22, relative to untreated control cells (UTC). The assignment of the immunostimulatory properties of the test compounds is based on the immunostimulatory properties of the internal control compounds in each assay.

Row | Substance | APOE RNA (% control) Cortex (human APOE RNA [1]) [% control] | APOE RNA (% control) Spinal Cord (human APOE RNA [1]) [% control] | pIC50 (human APOE RNA [2]) | APOE RNA (% UTC) (human APOE RNA [2]; 5 nM) | APOE RNA (% UTC) (human APOE RNA [2]; 13 nM) | APOE RNA (% UTC) (human APOE RNA [2]; 33 nM) | APOE RNA (% UTC) (human APOE RNA [2]; 82 nM) | APOE RNA (% UTC) (human APOE RNA [2]; 205 nM) | APOE RNA (% UTC) (human APOE RNA [2]; 512 nM) | APOE RNA (% UTC) (human APOE RNA [2]; 1,280 nM) | APOE RNA (% UTC) (human APOE RNA [2]; 3,200 nM) | APOE RNA (% UTC) (human APOE RNA [2]; 8,000 nM) | APOE RNA (% UTC) (human APOE RNA [2]; 20,000 nM) | APOE RNA (% control) Cortex (human APOE RNA [3]) [% control] | APOE RNA (% control) Spinal Cord (human APOE RNA [3]) [% control] | APOE RNA (% control) Cortex (human APOE RNA [4]; [9]) [% control] | APOE RNA (% control) Cortex (human APOE RNA [4]; [10]) [% control] | APOE RNA (% control) Spinal Cord (human APOE RNA [4]; [11]) [% control] | APOE RNA (% control) Cortex (human APOE RNA [5]) [% control] | APOE RNA (% control) Spinal Cord (human APOE RNA [5]) [% control] | also measured
1 | 1693101: 6-10-4 MOE gapmer CTTGGTGAATCTTTATTAAA, linkages sssssozzzssssszssss (e[5mC]*eT*eT*eG*eG*eTdG[ms]dA[ms]dA[ms]dT*d[5mC]*dT*dT*dT*dA[ms]dT*eT*eA*eA*eA) [compound 1693101] | 71 | 56 | 5.39 | 70 | 91 | 120 | 111 | 95 | 75 | 53 | 58 | 49 | 20 | 62 | 55 | 71 | 57 | 50 | 58 | 46 | APOE RNA (% control) Spinal Cord (human APOE RNA [4]; [12]): 77 % control; APOE RNA (% control) Cortex (human APOE RNA [4]; cortex, 4 weeks post treatment, normalized to mouse Ppia): 57 % control; APOE RNA (% control) Spinal Cord (human APOE RNA [4]; spinal cord, 4 weeks post treatment, normalized to mouse Ppia): 56 % control; APOE RNA (% control) Cortex (human APOE RNA [6]; Table 17): 79 % control; APOE RNA (% control) Spinal Cord (human APOE RNA [6]; Table 17): 57 % control
2 | 1736526: 6-10-4 MOE gapmer CTTGGTGAATCTTTATTAAA, linkages ssoooszzsssssssssss (e[5mC]*eT*eTeGeGeT*dG[ms]dA[ms]dA*dT*d[5mC]*dT*dT*dT*dA*dT*eT*eA*eA*eA) [compound 1736526] |  |  | 5.94 | 89 | 114 | 100 | 85 | 71 | 51 | 58 | 28 | 25 | 18 |  |  |  |  |  |  |  | APOE RNA (% control) Cortex (human APOE RNA [7]; cortex): 35 % control; APOE RNA (% control) Spinal Cord (human APOE RNA [7]; spinal cord): 42 % control; APOE RNA (% control) Cortex (human APOE RNA [8]): 67 % control; APOE RNA (% control) Spinal Cord (human APOE RNA [8]): 68 % control
3 | Compound No. 1517853: comparator of WO 2022/066956; TTGGTGAATCTTTATTAAAC, sugar eeeeeddddddddddeeeee, linkages sooosssssssssssooss (MOE gapmer, mixed PS/PO linkages, chemistry not fully specified) [reference compound] |  |  |  |  |  |  |  |  |  |  |  |  |  |  |  |  |  |  | 67 | 50 | inflammatory response in human BJAB cells (BJAB cells): highly inflammatory; APOE RNA (% control) Cortex (human APOE RNA [8]): 99 % control; APOE RNA (% control) Spinal Cord (human APOE RNA [8]): 98 % control; reduction of human APOE RNA in the cortex (human APOE RNA [5]; APOE knock-in mouse model, 8 weeks post administration, assay of Example 11): 33%; APOE RNA (% control) Cortex (human APOE RNA [6]; Table 16): 53 % control; APOE RNA (% control) Spinal Cord (human APOE RNA [6]; Table 16): 65 % control
4 | 1693102: 6-10-4 MOE gapmer CTTGGTGAATCTTTATTAAA, linkages ssssoszzzssssszssss (e[5mC]*eT*eT*eG*eGeT*dG[ms]dA[ms]dA[ms]dT*d[5mC]*dT*dT*dT*dA[ms]dT*eT*eA*eA*eA) [compound 1693102] | 69 | 41 | 5.93 | 89 | 95 | 87 | 92 | 80 | 64 | 48 | 32 | 22 | 10 | 51 | 51 | 61 | 55 | 48 | 58 | 43 | APOE RNA (% control) Spinal Cord (human APOE RNA [4]; [12]): 72 % control; APOE RNA (% control) Cortex (human APOE RNA [6]; Table 17): 60 % control; APOE RNA (% control) Spinal Cord (human APOE RNA [6]; Table 17): 45 % control
